± gives the expanded uncertainty stated by the source.
Test: mn = molality of the nth substance listed, in mol/kg
Details: 100 kPa, Liquid, Direct current cell with electrodes

CCn1cc[n+](C)c1.F[B-](F)(F)F [1-ethyl-3-methylimidazolium tetrafluoroborate] + CN(C)C=O
Details | molar conductivity [S·m2/mol]
283.15 K, m1 = 0.0001021 | 0.007524 ± 1e-05
283.15 K, m1 = 0.0002894 | 0.00744 ± 1e-05
283.15 K, m1 = 0.0004617 | 0.007387 ± 1e-05
283.15 K, m1 = 0.000707 | 0.007326 ± 1e-05
283.15 K, m1 = 0.001158 | 0.007238 ± 1e-05
283.15 K, m1 = 0.001876 | 0.007128 ± 1e-05
283.15 K, m1 = 0.002909 | 0.007001 ± 1e-05
283.15 K, m1 = 0.00391 | 0.006899 ± 1e-05
283.15 K, m1 = 0.006046 | 0.006724 ± 1e-05
283.15 K, m1 = 0.008043 | 0.006596 ± 1e-05
283.15 K, m1 = 0.01002 | 0.006492 ± 1e-05
283.15 K, m1 = 0.01201 | 0.006403 ± 1e-05
283.15 K, m1 = 0.0149 | 0.006286 ± 1e-05
288.15 K, m1 = 9.159e-05 | 0.008075 ± 1e-05
288.15 K, m1 = 0.0002695 | 0.007983 ± 1e-05
288.15 K, m1 = 0.0005098 | 0.007901 ± 1e-05
288.15 K, m1 = 0.0006932 | 0.007851 ± 1e-05
288.15 K, m1 = 0.001168 | 0.007746 ± 1e-05
288.15 K, m1 = 0.001915 | 0.007619 ± 1e-05
288.15 K, m1 = 0.002887 | 0.007489 ± 1e-05
288.15 K, m1 = 0.003934 | 0.007374 ± 1e-05
288.15 K, m1 = 0.005914 | 0.007199 ± 1e-05
288.15 K, m1 = 0.007975 | 0.007057 ± 1e-05
288.15 K, m1 = 0.009937 | 0.006944 ± 1e-05
288.15 K, m1 = 0.01205 | 0.00684 ± 1e-05
288.15 K, m1 = 0.01487 | 0.006715 ± 1e-05
293.15 K, m1 = 0.0001225 | 0.008604 ± 1e-05
293.15 K, m1 = 0.0002931 | 0.008516 ± 1e-05
293.15 K, m1 = 0.0004907 | 0.008442 ± 1e-05
293.15 K, m1 = 0.0007255 | 0.008372 ± 1e-05
293.15 K, m1 = 0.001177 | 0.008263 ± 1e-05
293.15 K, m1 = 0.001892 | 0.00813 ± 1e-05
293.15 K, m1 = 0.002911 | 0.007981 ± 1e-05
293.15 K, m1 = 0.003932 | 0.00786 ± 1e-05
293.15 K, m1 = 0.005979 | 0.007668 ± 1e-05
293.15 K, m1 = 0.007979 | 0.00752 ± 1e-05
293.15 K, m1 = 0.009955 | 0.007398 ± 1e-05
293.15 K, m1 = 0.01193 | 0.007292 ± 1e-05
293.15 K, m1 = 0.0148 | 0.007155 ± 1e-05
298.15 K, m1 = 0.0001133 | 0.009167 ± 1e-05
298.15 K, m1 = 0.0002704 | 0.009077 ± 1e-05
298.15 K, m1 = 0.000473 | 0.008993 ± 1e-05
298.15 K, m1 = 0.0006719 | 0.008926 ± 1e-05
298.15 K, m1 = 0.001151 | 0.008798 ± 1e-05
298.15 K, m1 = 0.001932 | 0.008639 ± 1e-05
298.15 K, m1 = 0.00291 | 0.008486 ± 1e-05
298.15 K, m1 = 0.003882 | 0.008361 ± 1e-05
298.15 K, m1 = 0.005957 | 0.008152 ± 1e-05
298.15 K, m1 = 0.007912 | 0.007996 ± 1e-05
298.15 K, m1 = 0.009961 | 0.007859 ± 1e-05
298.15 K, m1 = 0.012 | 0.007742 ± 1e-05
298.15 K, m1 = 0.01485 | 0.007598 ± 1e-05
303.15 K, m1 = 0.0001433 | 0.009709 ± 1e-05
303.15 K, m1 = 0.0002976 | 0.009622 ± 1e-05
303.15 K, m1 = 0.000507 | 0.009532 ± 1e-05
303.15 K, m1 = 0.0007136 | 0.00946 ± 1e-05
303.15 K, m1 = 0.001172 | 0.00933 ± 1e-05
303.15 K, m1 = 0.001894 | 0.009172 ± 1e-05
303.15 K, m1 = 0.002913 | 0.008999 ± 1e-05
303.15 K, m1 = 0.003926 | 0.008861 ± 1e-05
303.15 K, m1 = 0.005879 | 0.008649 ± 1e-05
303.15 K, m1 = 0.007956 | 0.008471 ± 1e-05
303.15 K, m1 = 0.009924 | 0.00833 ± 1e-05
303.15 K, m1 = 0.01202 | 0.0082 ± 1e-05
303.15 K, m1 = 0.01489 | 0.00805 ± 1e-05
308.15 K, m1 = 0.0001026 | 0.01031 ± 1e-05
308.15 K, m1 = 0.0003641 | 0.010155 ± 1e-05
308.15 K, m1 = 0.0005016 | 0.010095 ± 1e-05
308.15 K, m1 = 0.0006664 | 0.010033 ± 1e-05
308.15 K, m1 = 0.001147 | 0.009884 ± 1e-05
308.15 K, m1 = 0.001947 | 0.009697 ± 1e-05
308.15 K, m1 = 0.002894 | 0.009525 ± 1e-05
308.15 K, m1 = 0.003883 | 0.009379 ± 1e-05
308.15 K, m1 = 0.00584 | 0.009149 ± 1e-05
308.15 K, m1 = 0.007991 | 0.008948 ± 1e-05
308.15 K, m1 = 0.00998 | 0.008792 ± 1e-05
308.15 K, m1 = 0.01192 | 0.008661 ± 1e-05
308.15 K, m1 = 0.01486 | 0.008494 ± 1e-05
313.15 K, m1 = 9.519e-05 | 0.010895 ± 1e-05
313.15 K, m1 = 0.0002775 | 0.010772 ± 1e-05
313.15 K, m1 = 0.000472 | 0.010677 ± 1e-05
313.15 K, m1 = 0.0006836 | 0.010592 ± 1e-05
313.15 K, m1 = 0.001159 | 0.010438 ± 1e-05
313.15 K, m1 = 0.001948 | 0.010242 ± 1e-05
313.15 K, m1 = 0.002909 | 0.010057 ± 1e-05
313.15 K, m1 = 0.003934 | 0.009897 ± 1e-05
313.15 K, m1 = 0.005955 | 0.009647 ± 1e-05
313.15 K, m1 = 0.007964 | 0.009449 ± 1e-05
313.15 K, m1 = 0.009905 | 0.009289 ± 1e-05
313.15 K, m1 = 0.01192 | 0.009147 ± 1e-05
313.15 K, m1 = 0.0152 | 0.008968 ± 1e-05
318.15 K, m1 = 0.0001002 | 0.011475 ± 1e-05
318.15 K, m1 = 0.0002722 | 0.011357 ± 1e-05
318.15 K, m1 = 0.0004294 | 0.011275 ± 1e-05
318.15 K, m1 = 0.0006853 | 0.011165 ± 1e-05
318.15 K, m1 = 0.001173 | 0.011 ± 1e-05
318.15 K, m1 = 0.001899 | 0.010808 ± 1e-05
318.15 K, m1 = 0.002947 | 0.010593 ± 1e-05
318.15 K, m1 = 0.003909 | 0.010433 ± 1e-05
318.15 K, m1 = 0.005941 | 0.010163 ± 1e-05
318.15 K, m1 = 0.007935 | 0.009952 ± 1e-05
318.15 K, m1 = 0.009999 | 0.00977 ± 1e-05
318.15 K, m1 = 0.012 | 0.009623 ± 1e-05
318.15 K, m1 = 0.01494 | 0.009458 ± 1e-05
